Measurements from the CheMixHub ionic liquid set.
± gives the uncertainty stated by the source.

Experiment: xn = mol fraction of the nth substance listed

CCCC[n+]1ccn(C)c1.F[B-](F)(F)F + O
electrical conductivity (308.15 K, 100 kPa, x1 = 7.98e-05): 0.0658 ± 0.0011 S/m
viscosity (308.15 K, 100 kPa, x1 = 0.0003603): 0.751 ± 0.06 mPa·s
viscosity (308.15 K, 100 kPa, x1 = 0.0003729): 0.751 ± 0.061 mPa·s
viscosity (308.15 K, 100 kPa, x1 = 0.0007203): 0.789 ± 0.06 mPa·s
viscosity (308.15 K, 100 kPa, x1 = 0.0007257): 0.789 ± 0.061 mPa·s
viscosity (308.15 K, 100 kPa, x1 = 0.00108): 0.83 ± 0.061 mPa·s
viscosity (308.15 K, 100 kPa, x1 = 0.0011): 0.83 ± 0.061 mPa·s
viscosity (308.15 K, 100.3 kPa, x1 = 0.0005439): 0.7296 ± 0.0089 mPa·s
viscosity (308.15 K, 100.3 kPa, x1 = 0.0009901): 0.7358 ± 0.009 mPa·s
viscosity (308.15 K, 100.3 kPa, x1 = 0.00501): 0.7841 ± 0.0092 mPa·s
viscosity (308.15 K, 100.3 kPa, x1 = 0.006973): 0.8048 ± 0.0093 mPa·s
viscosity (308.15 K, 100.3 kPa, x1 = 0.009052): 0.835 ± 0.0094 mPa·s
viscosity (308.15 K, 100.3 kPa, x1 = 0.01199): 0.8681 ± 0.0096 mPa·s
viscosity (308.15 K, 100.3 kPa, x1 = 0.01499): 0.9047 ± 0.0098 mPa·s
viscosity (308.15 K, 100.3 kPa, x1 = 0.017): 0.9282 ± 0.0099 mPa·s
viscosity (308.15 K, 101 kPa, x2 = 0.1002): 38.1 ± 5 mPa·s
viscosity (308.15 K, 101 kPa, x2 = 0.209): 28.4 ± 3.8 mPa·s
electrical conductivity (308.15 K, 101 kPa, x2 = 0.7002): 4.24 ± 0.25 S/m
electrical conductivity (308.2 K, 101 kPa, frequency 6e-05 MHz, x2 = 0.2): 1.3 ± 0.013 S/m
electrical conductivity (308.2 K, 101 kPa, frequency 6e-05 MHz, x2 = 0.4): 2.04 ± 0.02 S/m
electrical conductivity (308.2 K, 101 kPa, frequency 6e-05 MHz, x2 = 0.6): 3.28 ± 0.033 S/m
electrical conductivity (308.2 K, 101 kPa, frequency 6e-05 MHz, x2 = 0.8): 5.28 ± 0.053 S/m
viscosity (313 K, 100 kPa, x1 = 0.6023): 13.87 ± 0.3 mPa·s
viscosity (313.15 K, 100 kPa, x1 = 0.0003603): 0.693 ± 0.06 mPa·s
viscosity (313.15 K, 100 kPa, x1 = 0.0003729): 0.693 ± 0.061 mPa·s
viscosity (313.15 K, 100 kPa, x1 = 0.0007203): 0.736 ± 0.06 mPa·s
viscosity (313.15 K, 100 kPa, x1 = 0.0007257): 0.736 ± 0.061 mPa·s
viscosity (313.15 K, 100 kPa, x1 = 0.00108): 0.779 ± 0.061 mPa·s
viscosity (313.15 K, 100 kPa, x1 = 0.0011): 0.779 ± 0.061 mPa·s
viscosity (313.15 K, 100.3 kPa, x1 = 0.0005439): 0.6614 ± 0.0086 mPa·s
viscosity (313.15 K, 100.3 kPa, x1 = 0.0009901): 0.6672 ± 0.0087 mPa·s
viscosity (313.15 K, 100.3 kPa, x1 = 0.00501): 0.7105 ± 0.0089 mPa·s
viscosity (313.15 K, 100.3 kPa, x1 = 0.006973): 0.7302 ± 0.0089 mPa·s
viscosity (313.15 K, 100.3 kPa, x1 = 0.009052): 0.7571 ± 0.0091 mPa·s
viscosity (313.15 K, 100.3 kPa, x1 = 0.01199): 0.7861 ± 0.0092 mPa·s
viscosity (313.15 K, 100.3 kPa, x1 = 0.01499): 0.8177 ± 0.0094 mPa·s
viscosity (313.15 K, 100.3 kPa, x1 = 0.017): 0.8403 ± 0.0095 mPa·s
viscosity (313.15 K, 101 kPa, x2 = 0): 46.5 ± 6 mPa·s
electrical conductivity (313.15 K, 101 kPa, x2 = 0.1014): 0.991 ± 0.059 S/m
viscosity (313.15 K, 101 kPa, x2 = 0.1135): 35.01 ± 0.84 mPa·s
viscosity (313.15 K, 101 kPa, x2 = 0.5014): 9 ± 1.4 mPa·s
viscosity (313.15 K, 101 kPa, x2 = 0.6004): 7.4 ± 1.2 mPa·s
electrical conductivity (313.15 K, 101 kPa, x2 = 0.8493): 6.99 ± 0.42 S/m
electrical conductivity (313.15 K, 101 kPa, x2 = 0.9744): 5.57 ± 0.34 S/m
electrical conductivity (313.2 K, 101 kPa, frequency 6e-05 MHz, x2 = 0.2): 1.45 ± 0.015 S/m
electrical conductivity (313.2 K, 101 kPa, frequency 6e-05 MHz, x2 = 0.4): 2.27 ± 0.023 S/m
electrical conductivity (313.2 K, 101 kPa, frequency 6e-05 MHz, x2 = 0.6): 3.69 ± 0.037 S/m
electrical conductivity (313.2 K, 101 kPa, frequency 6e-05 MHz, x2 = 0.8): 5.9 ± 0.059 S/m
viscosity (318.15 K, 100 kPa, x1 = 0.0003603): 0.638 ± 0.06 mPa·s
viscosity (318.15 K, 100 kPa, x1 = 0.0003729): 0.638 ± 0.061 mPa·s
viscosity (318.15 K, 100 kPa, x1 = 0.0007203): 0.681 ± 0.06 mPa·s
viscosity (318.15 K, 100 kPa, x1 = 0.0007257): 0.681 ± 0.061 mPa·s
viscosity (318.15 K, 100 kPa, x1 = 0.00108): 0.725 ± 0.06 mPa·s
viscosity (318.15 K, 100 kPa, x1 = 0.0011): 0.725 ± 0.061 mPa·s
viscosity (318.15 K, 100.3 kPa, x1 = 0.0005439): 0.6041 ± 0.0084 mPa·s
viscosity (318.15 K, 100.3 kPa, x1 = 0.0009901): 0.6099 ± 0.0084 mPa·s
viscosity (318.15 K, 100.3 kPa, x1 = 0.003018): 0.6311 ± 0.0085 mPa·s
viscosity (318.15 K, 100.3 kPa, x1 = 0.00501): 0.6489 ± 0.0086 mPa·s
viscosity (318.15 K, 100.3 kPa, x1 = 0.006973): 0.6654 ± 0.0087 mPa·s
viscosity (318.15 K, 100.3 kPa, x1 = 0.009052): 0.69 ± 0.0088 mPa·s
viscosity (318.15 K, 100.3 kPa, x1 = 0.01199): 0.7155 ± 0.0089 mPa·s
viscosity (318.15 K, 100.3 kPa, x1 = 0.01499): 0.7441 ± 0.009 mPa·s
viscosity (318.15 K, 100.3 kPa, x1 = 0.017): 0.7642 ± 0.0091 mPa·s
electrical conductivity (318.15 K, 101 kPa, x2 = 0.3058): 2 ± 0.12 S/m
viscosity (318.15 K, 101 kPa, x2 = 0.6004): 6.4 ± 1 mPa·s
electrical conductivity (318.2 K, 101 kPa, frequency 6e-05 MHz, x2 = 0.2): 1.59 ± 0.016 S/m
electrical conductivity (318.2 K, 101 kPa, frequency 6e-05 MHz, x2 = 0.4): 2.53 ± 0.025 S/m
electrical conductivity (318.2 K, 101 kPa, frequency 6e-05 MHz, x2 = 0.6): 4.13 ± 0.041 S/m
electrical conductivity (318.2 K, 101 kPa, frequency 6e-05 MHz, x2 = 0.8): 6.55 ± 0.066 S/m
viscosity (323.15 K, 101 kPa, x2 = 0.06153): 29.13 ± 0.56 mPa·s
viscosity (323.15 K, 101 kPa, x2 = 0.209): 16.7 ± 2.3 mPa·s
viscosity (323.15 K, 101 kPa, x2 = 0.4001): 8.4 ± 1.3 mPa·s
electrical conductivity (323.15 K, 101 kPa, x2 = 0.8493): 7.98 ± 0.48 S/m
electrical conductivity (323.15 K, 101 kPa, x2 = 0.9496): 8.04 ± 0.48 S/m
electrical conductivity (323.15 K, 101 kPa, x2 = 0.9744): 6.74 ± 0.41 S/m
electrical conductivity (323.2 K, 101 kPa, frequency 6e-05 MHz, x2 = 0.2): 1.75 ± 0.018 S/m
electrical conductivity (323.2 K, 101 kPa, frequency 6e-05 MHz, x2 = 0.4): 2.78 ± 0.028 S/m
electrical conductivity (323.2 K, 101 kPa, frequency 6e-05 MHz, x2 = 0.6): 4.57 ± 0.046 S/m
electrical conductivity (323.2 K, 101 kPa, frequency 6e-05 MHz, x2 = 0.8): 7.22 ± 0.072 S/m
viscosity (333.15 K, 101 kPa, x2 = 0): 24.86 ± 0.4 mPa·s
viscosity (333.15 K, 101 kPa, x2 = 0.1135): 18.67 ± 0.4 mPa·s
electrical conductivity (333.2 K, 101 kPa, frequency 6e-05 MHz, x2 = 0.2): 2.1 ± 0.021 S/m
electrical conductivity (333.2 K, 101 kPa, frequency 6e-05 MHz, x2 = 0.4): 3.36 ± 0.034 S/m
electrical conductivity (333.2 K, 101 kPa, frequency 6e-05 MHz, x2 = 0.6): 5.31 ± 0.053 S/m
electrical conductivity (333.2 K, 101 kPa, frequency 6e-05 MHz, x2 = 0.8): 8.54 ± 0.085 S/m
viscosity (343.15 K, 101 kPa, x2 = 0.2984): 6.5 ± 1 mPa·s
viscosity (343.15 K, 101 kPa, x2 = 0.6004): 3.75 ± 0.66 mPa·s
viscosity (343.15 K, 101 kPa, x2 = 0.7): 2.73 ± 0.49 mPa·s
viscosity (343.15 K, 101 kPa, x2 = 0.8999): 1.07 ± 0.21 mPa·s
electrical conductivity (343.2 K, 101 kPa, frequency 6e-05 MHz, x2 = 0.2): 2.49 ± 0.025 S/m
electrical conductivity (343.2 K, 101 kPa, frequency 6e-05 MHz, x2 = 0.4): 3.87 ± 0.039 S/m
electrical conductivity (343.2 K, 101 kPa, frequency 6e-05 MHz, x2 = 0.6): 6.27 ± 0.063 S/m
electrical conductivity (343.2 K, 101 kPa, frequency 6e-05 MHz, x2 = 0.8): 9.89 ± 0.099 S/m
viscosity (353.15 K, 101 kPa, x2 = 0.1002): 8.6 ± 1.3 mPa·s
viscosity (353.15 K, 101 kPa, x2 = 0.3977): 5.98 ± 0.29 mPa·s
viscosity (353.15 K, 101 kPa, x2 = 0.6004): 3.19 ± 0.57 mPa·s
electrical conductivity (353.2 K, 101 kPa, frequency 6e-05 MHz, x2 = 0.2): 2.94 ± 0.029 S/m
electrical conductivity (353.2 K, 101 kPa, frequency 6e-05 MHz, x2 = 0.4): 4.56 ± 0.046 S/m
electrical conductivity (353.2 K, 101 kPa, frequency 6e-05 MHz, x2 = 0.6): 7.44 ± 0.074 S/m
electrical conductivity (353.2 K, 101 kPa, frequency 6e-05 MHz, x2 = 0.8): 11.5 ± 0.12 S/m
viscosity (363.15 K, 101 kPa, x2 = 0.03402): 11 ± 0.18 mPa·s
viscosity (363.15 K, 101 kPa, x2 = 0.06153): 10.4 ± 0.18 mPa·s
viscosity (363.15 K, 101 kPa, x2 = 0.2802): 6.65 ± 0.19 mPa·s
viscosity (373.15 K, 101 kPa, x2 = 0): 9.55 ± 0.15 mPa·s
viscosity (373.15 K, 101 kPa, x2 = 0.06153): 8.6 ± 0.15 mPa·s
